Where a name gives a salt, the structure may show the parent alone. Blank lines part the entries; values can stand above or below the molecule they belong to.
Assays:
[1] = Dissociation constant, pKa of compound; format: physicochemical
BT-474 = assay: Cytotoxicity against human BT474 cells assessed as reduction in cell viability after 48 hrs by MTT assay; format: functional, cell-based; settings: BT-474, 48 h
[2] = biological target: T1, Serine/threonine-protein kinase ULK2 (Homo sapiens, UniProt Q8IYT8); assay: Inhibition of ULK2 (unknown origin)
T1 sequence (Q8IYT8 whole entry): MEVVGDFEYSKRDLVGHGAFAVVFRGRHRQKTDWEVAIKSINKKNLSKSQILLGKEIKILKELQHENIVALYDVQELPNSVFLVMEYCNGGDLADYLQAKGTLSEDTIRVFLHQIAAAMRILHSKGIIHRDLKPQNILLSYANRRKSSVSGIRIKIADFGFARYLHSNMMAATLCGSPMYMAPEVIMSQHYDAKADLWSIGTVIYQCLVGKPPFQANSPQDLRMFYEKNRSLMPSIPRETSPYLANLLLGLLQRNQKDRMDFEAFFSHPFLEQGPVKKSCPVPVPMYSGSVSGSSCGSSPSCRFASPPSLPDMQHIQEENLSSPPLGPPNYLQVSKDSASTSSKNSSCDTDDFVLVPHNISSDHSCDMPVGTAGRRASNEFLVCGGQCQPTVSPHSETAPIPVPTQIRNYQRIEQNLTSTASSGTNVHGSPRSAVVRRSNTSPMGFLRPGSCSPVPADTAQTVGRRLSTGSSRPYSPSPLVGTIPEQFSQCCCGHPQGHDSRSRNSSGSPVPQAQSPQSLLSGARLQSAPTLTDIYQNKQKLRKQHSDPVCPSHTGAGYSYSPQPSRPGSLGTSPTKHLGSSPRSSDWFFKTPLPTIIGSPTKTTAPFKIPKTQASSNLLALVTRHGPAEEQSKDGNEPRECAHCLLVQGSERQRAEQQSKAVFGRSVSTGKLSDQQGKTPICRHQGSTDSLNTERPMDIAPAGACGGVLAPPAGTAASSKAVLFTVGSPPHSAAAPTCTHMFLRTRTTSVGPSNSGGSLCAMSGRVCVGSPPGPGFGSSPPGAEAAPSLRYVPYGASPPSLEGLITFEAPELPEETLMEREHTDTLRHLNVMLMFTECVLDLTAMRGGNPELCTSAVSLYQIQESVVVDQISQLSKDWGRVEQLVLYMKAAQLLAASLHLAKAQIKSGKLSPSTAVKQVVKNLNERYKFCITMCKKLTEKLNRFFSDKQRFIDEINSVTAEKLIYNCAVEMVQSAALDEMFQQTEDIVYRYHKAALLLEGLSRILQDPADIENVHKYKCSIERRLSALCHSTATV

[3] = biological target: T2, Serine/threonine-protein kinase ULK1 (Homo sapiens, UniProt O75385)
T2 sequence (O75385 whole entry): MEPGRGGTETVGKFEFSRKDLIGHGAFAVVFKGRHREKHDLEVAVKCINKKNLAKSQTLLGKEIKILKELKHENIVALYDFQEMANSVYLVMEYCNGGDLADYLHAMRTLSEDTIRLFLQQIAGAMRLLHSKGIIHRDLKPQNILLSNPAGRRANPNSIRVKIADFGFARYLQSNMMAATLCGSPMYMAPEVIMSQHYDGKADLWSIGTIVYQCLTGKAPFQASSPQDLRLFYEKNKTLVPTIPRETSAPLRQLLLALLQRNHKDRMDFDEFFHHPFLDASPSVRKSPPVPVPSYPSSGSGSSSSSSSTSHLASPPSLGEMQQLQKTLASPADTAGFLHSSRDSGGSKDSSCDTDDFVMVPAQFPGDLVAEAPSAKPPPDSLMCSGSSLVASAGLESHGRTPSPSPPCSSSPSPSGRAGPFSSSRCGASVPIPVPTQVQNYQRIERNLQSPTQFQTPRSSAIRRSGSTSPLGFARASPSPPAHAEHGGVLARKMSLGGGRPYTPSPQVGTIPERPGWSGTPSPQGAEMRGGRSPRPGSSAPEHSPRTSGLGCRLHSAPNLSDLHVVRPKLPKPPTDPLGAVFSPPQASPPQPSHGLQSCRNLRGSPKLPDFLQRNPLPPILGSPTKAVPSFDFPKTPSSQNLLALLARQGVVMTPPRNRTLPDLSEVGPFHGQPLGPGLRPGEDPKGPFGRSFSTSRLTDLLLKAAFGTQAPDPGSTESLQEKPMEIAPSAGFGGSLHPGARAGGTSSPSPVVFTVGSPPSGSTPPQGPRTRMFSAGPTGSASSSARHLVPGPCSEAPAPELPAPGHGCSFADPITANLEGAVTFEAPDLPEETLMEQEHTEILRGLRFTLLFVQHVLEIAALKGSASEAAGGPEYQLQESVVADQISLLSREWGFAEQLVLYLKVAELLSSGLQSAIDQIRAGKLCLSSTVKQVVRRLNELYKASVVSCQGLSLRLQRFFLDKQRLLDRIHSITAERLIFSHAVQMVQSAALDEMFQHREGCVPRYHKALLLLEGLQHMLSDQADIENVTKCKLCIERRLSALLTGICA

[4] = biological target: T1, Serine/threonine-protein kinase ULK2
mTORC1 = mTORC1 (Homo sapiens, UniProt P42345); format: protein-complex assay
mTORC2 = mTORC2 (Homo sapiens, UniProt P42345); format: protein-complex assay
[5] = biological target: AMP-activated protein kinase (AMPK) alpha-1/beta-1/gamma-1 (Homo sapiens, UniProt P54619+Q13131+Q9Y478); assay: Activation of recombinant human AMPK alpha1/beta1/gamma1 (unknown origin) using SAMS peptide as substrate preincubated for 20 mins followed by substrate and gamma-[32]P-ATP addition and measured after 30 mins by liquid scintillation counting method; format: protein-complex assay
MDA-MB-231 = assay: Cytotoxicity against human MDA-MB-231 cells assessed as reduction in cell viability at 750 nM after 24 hrs by MTT assay relative to control; format: functional
[6] = biological target: Phosphatidylinositol 4,5-bisphosphate 3-kinase catalytic subunit alpha isoform (Homo sapiens, UniProt P42336); assay: Inhibition of PI3K p110alpha (unknown origin)
[7] = biological target: Phosphatidylinositol 4,5-bisphosphate 3-kinase catalytic subunit beta isoform (Homo sapiens, UniProt P42338); assay: Inhibition of PI3K p110beta (unknown origin)
[8] = biological target: T3, Phosphatidylinositol 4,5-bisphosphate 3-kinase catalytic subunit delta isoform (Homo sapiens, UniProt O00329); assay: Inhibition of PI3K p110delta (unknown origin)
T3 sequence (O00329 whole entry): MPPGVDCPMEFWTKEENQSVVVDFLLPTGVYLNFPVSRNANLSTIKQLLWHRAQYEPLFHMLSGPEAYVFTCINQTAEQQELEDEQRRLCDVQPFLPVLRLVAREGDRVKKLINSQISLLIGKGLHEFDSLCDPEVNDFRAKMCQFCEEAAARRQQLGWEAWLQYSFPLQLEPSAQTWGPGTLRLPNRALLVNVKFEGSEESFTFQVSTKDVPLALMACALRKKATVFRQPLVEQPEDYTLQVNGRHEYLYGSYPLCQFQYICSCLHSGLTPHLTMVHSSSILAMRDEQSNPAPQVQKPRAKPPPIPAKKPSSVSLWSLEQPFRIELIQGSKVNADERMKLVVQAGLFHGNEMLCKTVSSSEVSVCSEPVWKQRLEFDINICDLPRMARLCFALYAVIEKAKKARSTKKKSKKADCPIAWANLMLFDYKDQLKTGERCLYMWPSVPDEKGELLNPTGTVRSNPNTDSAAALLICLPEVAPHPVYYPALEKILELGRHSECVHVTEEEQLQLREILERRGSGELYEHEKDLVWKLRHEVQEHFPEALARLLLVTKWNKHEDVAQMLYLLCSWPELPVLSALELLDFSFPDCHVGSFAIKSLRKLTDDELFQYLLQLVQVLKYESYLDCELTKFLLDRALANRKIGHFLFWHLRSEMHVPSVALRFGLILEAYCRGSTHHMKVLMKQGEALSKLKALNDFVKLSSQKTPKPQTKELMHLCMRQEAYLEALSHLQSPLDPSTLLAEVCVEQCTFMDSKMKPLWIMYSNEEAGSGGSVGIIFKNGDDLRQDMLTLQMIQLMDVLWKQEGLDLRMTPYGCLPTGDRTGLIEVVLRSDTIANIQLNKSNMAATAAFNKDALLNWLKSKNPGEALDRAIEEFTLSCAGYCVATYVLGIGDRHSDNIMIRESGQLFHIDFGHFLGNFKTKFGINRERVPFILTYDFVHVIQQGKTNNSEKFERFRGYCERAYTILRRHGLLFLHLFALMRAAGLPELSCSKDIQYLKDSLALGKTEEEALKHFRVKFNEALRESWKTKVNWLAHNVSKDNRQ

CNE-2 = assay: Antiproliferative activity against human CNE2 cells after 72 hrs by MTT assay; format: functional, cell-based; settings: CNE-2, 72 h
[9] = biological target: Phosphatidylinositol 4,5-bisphosphate 3-kinase catalytic subunit gamma isoform (Homo sapiens, UniProt P48736)
U2OS = assay: Inhibition of autophagy in human U2OS cells stably expressing tfLC3; format: functional
[10] = Cytotoxicity in human U2OS cells incubated for 24 to 48 hrs by CellTiter Glo assay; format: cell-based; settings: read-out: LD50 (the source's name)

Sequence of AMP-activated protein kinase (AMPK) alpha-1/beta-1/gamma-1 (P54619 whole entry): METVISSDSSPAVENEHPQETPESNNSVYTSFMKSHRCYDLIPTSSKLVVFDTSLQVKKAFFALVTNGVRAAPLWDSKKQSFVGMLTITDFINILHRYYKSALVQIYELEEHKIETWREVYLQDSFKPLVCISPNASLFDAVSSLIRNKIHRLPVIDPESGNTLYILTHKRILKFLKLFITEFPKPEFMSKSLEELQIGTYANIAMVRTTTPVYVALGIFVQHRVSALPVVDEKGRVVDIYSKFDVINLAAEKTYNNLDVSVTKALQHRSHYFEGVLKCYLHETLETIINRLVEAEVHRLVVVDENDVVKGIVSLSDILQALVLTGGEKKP
Sequence of AMP-activated protein kinase (AMPK) alpha-1/beta-1/gamma-1 (Q9Y478 whole entry): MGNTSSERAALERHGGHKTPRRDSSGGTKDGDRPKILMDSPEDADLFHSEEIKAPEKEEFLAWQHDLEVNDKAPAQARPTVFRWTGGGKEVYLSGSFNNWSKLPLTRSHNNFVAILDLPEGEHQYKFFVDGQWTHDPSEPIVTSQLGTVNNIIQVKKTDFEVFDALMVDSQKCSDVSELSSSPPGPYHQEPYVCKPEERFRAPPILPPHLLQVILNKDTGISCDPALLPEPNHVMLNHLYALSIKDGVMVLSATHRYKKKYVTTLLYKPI
Sequence of AMP-activated protein kinase (AMPK) alpha-1/beta-1/gamma-1 (Q13131 whole entry): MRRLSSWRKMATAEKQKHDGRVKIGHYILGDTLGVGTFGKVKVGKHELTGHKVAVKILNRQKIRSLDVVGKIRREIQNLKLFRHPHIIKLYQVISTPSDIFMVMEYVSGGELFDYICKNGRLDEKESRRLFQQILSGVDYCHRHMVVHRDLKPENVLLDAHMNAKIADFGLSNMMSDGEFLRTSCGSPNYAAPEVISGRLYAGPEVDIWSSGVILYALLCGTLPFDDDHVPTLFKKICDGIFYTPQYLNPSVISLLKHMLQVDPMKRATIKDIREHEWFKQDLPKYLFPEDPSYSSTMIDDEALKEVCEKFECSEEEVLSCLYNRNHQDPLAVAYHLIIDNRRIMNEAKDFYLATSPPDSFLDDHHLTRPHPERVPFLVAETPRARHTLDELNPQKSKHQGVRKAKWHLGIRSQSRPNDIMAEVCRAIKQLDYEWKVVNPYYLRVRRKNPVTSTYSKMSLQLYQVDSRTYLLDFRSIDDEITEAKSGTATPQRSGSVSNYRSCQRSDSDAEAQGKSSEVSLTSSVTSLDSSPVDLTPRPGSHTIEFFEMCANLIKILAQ
Sequence of Phosphatidylinositol 4,5-bisphosphate 3-kinase catalytic subunit gamma isoform (P48736 whole entry, canonical isoform): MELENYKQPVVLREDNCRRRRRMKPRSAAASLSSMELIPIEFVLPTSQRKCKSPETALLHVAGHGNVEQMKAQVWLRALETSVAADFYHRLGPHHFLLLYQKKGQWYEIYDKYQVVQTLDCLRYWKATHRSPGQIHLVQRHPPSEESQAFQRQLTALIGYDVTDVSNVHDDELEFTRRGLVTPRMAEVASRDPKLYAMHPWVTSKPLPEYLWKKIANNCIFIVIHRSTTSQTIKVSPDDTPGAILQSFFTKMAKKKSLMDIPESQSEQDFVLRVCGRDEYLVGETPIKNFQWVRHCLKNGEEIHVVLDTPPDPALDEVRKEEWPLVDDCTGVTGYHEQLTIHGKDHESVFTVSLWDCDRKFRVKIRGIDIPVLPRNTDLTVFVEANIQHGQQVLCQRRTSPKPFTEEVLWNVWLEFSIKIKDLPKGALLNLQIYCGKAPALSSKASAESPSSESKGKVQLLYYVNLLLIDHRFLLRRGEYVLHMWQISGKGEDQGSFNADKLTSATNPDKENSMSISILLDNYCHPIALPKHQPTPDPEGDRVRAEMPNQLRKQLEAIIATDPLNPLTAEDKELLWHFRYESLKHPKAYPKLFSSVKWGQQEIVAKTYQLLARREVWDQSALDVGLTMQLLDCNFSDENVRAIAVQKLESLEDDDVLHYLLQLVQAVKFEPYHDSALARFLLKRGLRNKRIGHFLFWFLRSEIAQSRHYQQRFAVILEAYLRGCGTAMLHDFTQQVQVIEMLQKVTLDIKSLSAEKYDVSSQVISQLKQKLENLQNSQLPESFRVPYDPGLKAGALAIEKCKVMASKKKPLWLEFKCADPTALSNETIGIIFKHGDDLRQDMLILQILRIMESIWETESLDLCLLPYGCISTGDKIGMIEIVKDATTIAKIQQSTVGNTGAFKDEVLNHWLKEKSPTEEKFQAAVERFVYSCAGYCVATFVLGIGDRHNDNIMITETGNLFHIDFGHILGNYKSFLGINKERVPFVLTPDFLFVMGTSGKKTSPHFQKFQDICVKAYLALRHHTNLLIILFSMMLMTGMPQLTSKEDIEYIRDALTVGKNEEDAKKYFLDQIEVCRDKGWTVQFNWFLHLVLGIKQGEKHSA
Sequence of Phosphatidylinositol 4,5-bisphosphate 3-kinase catalytic subunit beta isoform (P42338 whole entry, canonical isoform): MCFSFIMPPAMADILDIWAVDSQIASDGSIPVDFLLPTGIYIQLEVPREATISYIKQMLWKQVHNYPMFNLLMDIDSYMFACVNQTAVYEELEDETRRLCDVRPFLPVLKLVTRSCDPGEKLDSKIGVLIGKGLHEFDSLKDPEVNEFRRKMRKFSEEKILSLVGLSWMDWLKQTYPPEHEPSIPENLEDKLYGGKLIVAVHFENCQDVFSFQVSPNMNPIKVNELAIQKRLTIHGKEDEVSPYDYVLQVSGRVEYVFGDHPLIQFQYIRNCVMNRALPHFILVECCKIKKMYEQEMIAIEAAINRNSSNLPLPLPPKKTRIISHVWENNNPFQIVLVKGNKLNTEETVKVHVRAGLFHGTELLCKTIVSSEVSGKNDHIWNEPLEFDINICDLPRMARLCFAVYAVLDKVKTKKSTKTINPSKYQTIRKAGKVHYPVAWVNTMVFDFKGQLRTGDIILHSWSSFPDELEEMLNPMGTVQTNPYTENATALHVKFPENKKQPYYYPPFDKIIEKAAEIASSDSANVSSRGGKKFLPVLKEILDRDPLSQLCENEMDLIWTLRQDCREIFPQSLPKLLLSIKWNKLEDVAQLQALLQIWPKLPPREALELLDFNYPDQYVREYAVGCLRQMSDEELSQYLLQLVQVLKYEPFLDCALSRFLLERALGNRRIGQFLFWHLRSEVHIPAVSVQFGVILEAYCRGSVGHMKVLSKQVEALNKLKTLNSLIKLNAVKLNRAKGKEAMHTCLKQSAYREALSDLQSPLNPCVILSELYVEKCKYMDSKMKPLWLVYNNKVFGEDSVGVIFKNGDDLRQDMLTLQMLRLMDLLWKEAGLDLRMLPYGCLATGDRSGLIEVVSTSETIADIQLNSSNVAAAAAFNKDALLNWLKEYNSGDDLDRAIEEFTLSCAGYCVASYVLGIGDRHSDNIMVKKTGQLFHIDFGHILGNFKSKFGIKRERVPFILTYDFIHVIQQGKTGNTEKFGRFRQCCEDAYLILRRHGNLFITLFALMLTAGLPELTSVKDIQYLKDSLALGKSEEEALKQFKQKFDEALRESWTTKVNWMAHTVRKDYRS
Sequence of Phosphatidylinositol 4,5-bisphosphate 3-kinase catalytic subunit alpha isoform (P42336 whole entry, canonical isoform): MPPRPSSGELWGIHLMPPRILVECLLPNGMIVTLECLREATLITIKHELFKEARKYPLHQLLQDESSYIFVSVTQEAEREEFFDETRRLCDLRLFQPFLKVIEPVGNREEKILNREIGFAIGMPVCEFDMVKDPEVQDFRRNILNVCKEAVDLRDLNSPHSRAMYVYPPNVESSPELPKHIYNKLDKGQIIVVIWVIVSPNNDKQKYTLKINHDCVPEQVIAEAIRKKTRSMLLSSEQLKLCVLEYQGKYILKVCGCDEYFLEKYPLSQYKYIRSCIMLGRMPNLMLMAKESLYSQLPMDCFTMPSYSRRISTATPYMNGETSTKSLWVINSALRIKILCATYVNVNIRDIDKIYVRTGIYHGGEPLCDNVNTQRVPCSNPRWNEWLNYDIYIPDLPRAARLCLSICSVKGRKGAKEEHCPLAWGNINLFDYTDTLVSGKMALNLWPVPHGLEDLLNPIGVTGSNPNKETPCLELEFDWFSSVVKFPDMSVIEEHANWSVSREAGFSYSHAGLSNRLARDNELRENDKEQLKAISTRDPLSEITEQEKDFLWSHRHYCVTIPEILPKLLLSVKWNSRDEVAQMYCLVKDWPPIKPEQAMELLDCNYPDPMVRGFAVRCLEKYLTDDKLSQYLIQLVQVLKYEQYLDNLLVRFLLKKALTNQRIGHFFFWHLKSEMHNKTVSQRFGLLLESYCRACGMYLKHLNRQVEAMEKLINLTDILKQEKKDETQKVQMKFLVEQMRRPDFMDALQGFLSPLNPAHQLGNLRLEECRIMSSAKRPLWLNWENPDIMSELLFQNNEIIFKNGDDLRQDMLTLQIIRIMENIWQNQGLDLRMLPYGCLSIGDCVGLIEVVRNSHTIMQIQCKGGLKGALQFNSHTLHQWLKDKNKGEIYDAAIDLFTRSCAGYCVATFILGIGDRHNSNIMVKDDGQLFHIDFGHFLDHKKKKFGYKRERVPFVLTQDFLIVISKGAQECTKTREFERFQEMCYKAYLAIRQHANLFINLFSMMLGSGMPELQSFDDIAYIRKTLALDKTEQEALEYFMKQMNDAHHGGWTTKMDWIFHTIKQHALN

pKa [1]: > 7.5
SMILES: CN1CCN(Cc2cc(CNC3(c4ccccc4F)CCCC3)ccc2O)CC1
IC50 (BT-474): 23.5 to 30.1 µM

IC50 (mTORC1): 0.005 to 0.009 µM | IC50 (mTORC2): 0.005 to 0.009 µM
SMILES: COC(=O)Nc1ccc(-c2nc(N3CCOCC3)c3cnn(C4CCN(C(=O)OC)CC4)c3n2)cc1

IC50 [6]: 0.767 µM | IC50 [7]: 0.699 µM | IC50 [8]: 0.0028 µM | IC50 [9]: 0.0897 µM
SMILES: c1cnc2ccc(Nc3nc(NC4CC4)c4nc[nH]c4n3)cc2c1 [PUQUITINIB MESYLATE DIHYDRATE]
IC50 (CNE-2): 5.2 µM

The remaining lines, values behind:

SMILES: CNC(=O)c1ccccc1Oc1nc(Nc2cc(OC)c(OC)c(OC)c2)ncc1Br
IC50 [2]: 0.011 µM

SMILES: CN1CCc2cc(Nc3ncc(C4CC4)c(NCCCNC(=O)C4CCC4)n3)ccc2C1
IC50 [3]: 0.0029 µM | IC50 [4]: 0.0011 µM

SMILES: O=C(/C=C/c1ccc2c(c1)OCO2)CC1(O)C(=O)Nc2ccccc21 (centres undefined)
IC50 (mTORC1): 0.001 to 0.005 µM | IC50 (mTORC2): 0.001 to 0.005 µM

SMILES: CC1(CN2C(=O)S/C(=C\c3ccc(NS(=O)(=O)c4ccc([N+](=O)[O-])c(C(F)(F)F)c4)cc3)C2=O)CCCCC1
EC50 [5]: 0.3 µM

SMILES: CCN(CC)CCCC(C)Nc1ccnc2cc(Cl)ccc12 (centres undefined) [CHLOROQUINE]
IC50 (BT-474): > 1000 µM

SMILES: COC(=O)Nc1nc2cc(C(=O)c3ccc(F)cc3)ccc2[nH]1 [FLUBENDAZOLE]
Activity (MDA-MB-231): 50%

SMILES: CCN(CC)CCCC(C)Nc1c2ccc(Cl)cc2nc2ccc(OC)cc12 (centres undefined) [QUINACRINE]
EC (U2OS): 0.2 µM | CC50 [10]: 2.5 µM

— ChEMBL document CHEMBL4308824, “Design of Small Molecule Autophagy Modulators: A Promising Druggable Strategy” (J Med Chem, 2018)
